# Values quoted from earlier work as cited in patent EP0426167A2, “Antitumor substance, process for preparing the same, and pharmaceutical composition containing the same” (MEIJI SEIKA KAISHA LTD., priority 1989, dated 1991).
# How the values were obtained:
# P388 tumor cells [1] = conditions: result in words; cited from earlier work
# P388 tumor cells [2] = conditions: result in words; cited from earlier work; remark: listed apart in the source
# [3] = mouse, i.p.; cited from earlier work
structure (smiles),measurement,setting,value
Cc1cc2c(c3oc(C4(C)OC4C4OC4C)cc(=O)c13)C(=O)c1c(ccc(C3CC(C)(N(C)C)C(O)C(C)O3)c1O)C2=O (stereo not drawn) [SF2587 substance],inhibitory activity on P388 tumor cells,P388 tumor cells [1],considerable inhibitory activity
same,therapeutic effects in mice transplanted with P388 tumor cells,P388 tumor cells [2],"excellent therapeutic, effects"
same,LD₅₀,[3],0.5 to 1 mg/kg
